Assay results as given in ChEMBL document CHEMBL6153102, “Rational Design, Synthesis, and Biological Evaluation of Novel c-Met Degraders for Lung Cancer Therapy” (J Med Chem, 2025).
Calls of active or inactive are those of the source. No cut-off for these calls is given here.

Legend:
[1] = MRT (0 to t) in Sprague-Dawley rat at 5 mg/kg, ip measured upto 24 hrs by LC-MS/MS analysis; type: ADME, organism-based; details: in vivo
[2] = Half life in Sprague-Dawley rat at 5 mg/kg, ip measured upto 24 hrs by LC-MS/MS analysis; type: ADME, organism-based; details: in vivo
[3] = target: T1, Protein cereblon/Hepatocyte growth factor receptor (Homo sapiens, UniProt P08581+Q96SW2); assay: PROTAC activity at c-Met/CRBN in human EBC-1 cells assessed as induction of c-Met degradation at 15.6 nM incubated for 24 hrs by Western blotting analysis relative to control; type: cell-based
Target sequence in this assay (P08581 25-1390 limits assumed): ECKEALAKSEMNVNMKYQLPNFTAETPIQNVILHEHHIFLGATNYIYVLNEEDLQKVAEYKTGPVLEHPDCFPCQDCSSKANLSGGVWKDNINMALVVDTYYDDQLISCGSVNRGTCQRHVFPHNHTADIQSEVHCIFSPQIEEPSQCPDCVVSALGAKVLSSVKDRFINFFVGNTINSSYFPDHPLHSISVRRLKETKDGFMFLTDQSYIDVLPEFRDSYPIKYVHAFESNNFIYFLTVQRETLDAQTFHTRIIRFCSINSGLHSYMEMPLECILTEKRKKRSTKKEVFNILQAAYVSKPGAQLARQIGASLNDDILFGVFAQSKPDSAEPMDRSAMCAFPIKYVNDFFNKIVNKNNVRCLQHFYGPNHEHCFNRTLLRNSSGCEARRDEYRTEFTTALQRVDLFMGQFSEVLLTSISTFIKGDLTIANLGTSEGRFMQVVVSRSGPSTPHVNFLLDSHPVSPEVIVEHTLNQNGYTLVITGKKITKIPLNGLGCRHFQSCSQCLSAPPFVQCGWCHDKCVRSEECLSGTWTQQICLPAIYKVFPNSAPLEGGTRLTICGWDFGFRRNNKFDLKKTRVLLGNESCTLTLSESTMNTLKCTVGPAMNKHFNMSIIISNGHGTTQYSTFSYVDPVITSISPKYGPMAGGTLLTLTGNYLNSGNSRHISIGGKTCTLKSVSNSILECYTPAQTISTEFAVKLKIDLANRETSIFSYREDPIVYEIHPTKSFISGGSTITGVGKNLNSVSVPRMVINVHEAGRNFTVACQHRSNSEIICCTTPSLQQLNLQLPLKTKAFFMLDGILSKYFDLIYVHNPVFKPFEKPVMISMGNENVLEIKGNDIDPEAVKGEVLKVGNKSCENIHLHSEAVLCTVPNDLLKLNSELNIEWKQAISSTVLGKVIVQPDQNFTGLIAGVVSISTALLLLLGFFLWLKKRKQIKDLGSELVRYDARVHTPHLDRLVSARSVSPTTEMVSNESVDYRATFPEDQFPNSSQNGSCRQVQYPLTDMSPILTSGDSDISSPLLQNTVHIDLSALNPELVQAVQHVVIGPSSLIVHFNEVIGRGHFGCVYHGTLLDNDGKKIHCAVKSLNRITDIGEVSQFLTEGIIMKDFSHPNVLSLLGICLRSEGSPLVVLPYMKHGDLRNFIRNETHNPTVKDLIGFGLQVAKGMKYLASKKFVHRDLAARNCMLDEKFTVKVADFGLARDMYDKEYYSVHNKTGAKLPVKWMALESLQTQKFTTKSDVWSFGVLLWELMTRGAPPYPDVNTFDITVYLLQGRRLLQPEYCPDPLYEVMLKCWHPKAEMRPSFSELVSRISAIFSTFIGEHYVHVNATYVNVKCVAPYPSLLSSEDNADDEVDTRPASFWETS
Target sequence in this assay (Q96SW2 whole entry partner): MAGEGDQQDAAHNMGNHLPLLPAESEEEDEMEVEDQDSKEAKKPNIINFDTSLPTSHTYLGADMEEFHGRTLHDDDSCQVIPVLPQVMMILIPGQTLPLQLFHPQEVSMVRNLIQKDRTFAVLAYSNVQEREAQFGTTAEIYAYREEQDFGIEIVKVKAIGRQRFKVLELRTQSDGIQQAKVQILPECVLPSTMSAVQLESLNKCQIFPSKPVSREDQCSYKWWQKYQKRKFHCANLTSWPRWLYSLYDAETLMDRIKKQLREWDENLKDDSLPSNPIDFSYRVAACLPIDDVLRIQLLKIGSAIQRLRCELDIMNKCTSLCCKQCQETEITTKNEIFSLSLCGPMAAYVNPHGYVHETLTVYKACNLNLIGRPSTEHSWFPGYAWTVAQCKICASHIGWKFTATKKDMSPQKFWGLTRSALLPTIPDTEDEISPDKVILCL

[4] = MRT (0 to infinity) in Sprague-Dawley rat at 2 mg/kg, iv measured upto 24 hrs by LC-MS/MS analysis; type: ADME, organism-based; details: in vivo
[5] = target: T1, Protein cereblon/Hepatocyte growth factor receptor; assay: PROTAC activity at c-Met/CRBN in human EBC-1 cells assessed as reduction in c-Met mRNA level at 3.9 to 125 nM incubated for 24 hrs by qPCR analysis; type: cell-based; details: dose 3.9-125 nM
Target sequence in this assay (P08581 25-1390 limits assumed): as the sequence (P08581 25-1390 limits assumed) above
Target sequence in this assay (Q96SW2 whole entry partner): as the sequence (Q96SW2 whole entry partner) above

[6] = target: T1, Protein cereblon/Hepatocyte growth factor receptor; assay: PROTAC activity at c-Met/CRBN in human A549 cells assessed as induction of c-Met degradation at 100 nM incubated for 24 hrs by Western blotting analysis relative to control; type: cell-based
Target sequence in this assay (P08581 25-1390 limits assumed): as the sequence (P08581 25-1390 limits assumed) above
Target sequence in this assay (Q96SW2 whole entry partner): as the sequence (Q96SW2 whole entry partner) above

[7] = Stability in rat plasma assessed as half life; type: ADME, cell-free
EBC-1 [8] = assay: PROTAC activity at c-Met […] mutant /CRBN in human EBC-1 cells assessed as induction of c-Met degradation incubated for 24 hrs by Western blotting analysis; type: cell-based; details: dose <= 1000.0 nM
[9] = AUC (0 to t) in Sprague-Dawley rat at 2 mg/kg, iv measured upto 24 hrs by LC-MS/MS analysis; type: ADME, organism-based; details: in vivo
[10] = target: T1, Protein cereblon/Hepatocyte growth factor receptor; assay: PROTAC activity at c-Met/CRBN in human EBC-1 cells assessed as reduction in AKR1C3 level at 15.6 nM incubated for 24 hrs by proteomics analysis; type: cell-based
Target sequence in this assay (P08581 25-1390 limits assumed): as the sequence (P08581 25-1390 limits assumed) above
Target sequence in this assay (Q96SW2 whole entry partner): as the sequence (Q96SW2 whole entry partner) above

[11] = Cmax in Sprague-Dawley rat at 2 mg/kg, iv measured upto 24 hrs by LC-MS/MS analysis; type: ADME, organism-based; details: in vivo
[12] = target: T1, Protein cereblon/Hepatocyte growth factor receptor; assay: PROTAC activity at c-Met/CRBN in human EBC-1 cells assessed as reduction in c-Met level at 3.9 to 125 nM incubated for 24 hrs in presence of lenalidomide by Western blot analysis; type: cell-based; details: dose 3.9-125 nM
Target sequence in this assay (P08581 25-1390 limits assumed): as the sequence (P08581 25-1390 limits assumed) above
Target sequence in this assay (Q96SW2 whole entry partner): as the sequence (Q96SW2 whole entry partner) above

[13] = target: T1, Protein cereblon/Hepatocyte growth factor receptor; assay: PROTAC activity at c-Met/CRBN in human A549 cells assessed as induction of c-Met degradation at 15.6 nM by Western blotting analysis; type: cell-based; details: time 72.0 hrs
Target sequence in this assay (P08581 25-1390 limits assumed): as the sequence (P08581 25-1390 limits assumed) above
Target sequence in this assay (Q96SW2 whole entry partner): as the sequence (Q96SW2 whole entry partner) above

EBC-1 [14] = assay: Antitumor activity against human EBC-1 cells xenografted in ip dosed BALB/c nude mouse assessed as reduction in tumor growth administered for 7 days; type: functional, organism-based; details: dose 10-20 mg/kg, time 7.0 day
EBC-1 [15] = assay: Induction of apoptosis in human EBC-1 cells assessed as early apoptotic cells at 5 nM incubated for 24 hrs by Annexin V/FITC staining based flow cytometry analysis (reference value: 2.11 %); type: functional
[16] = Toxicity in BALB/c nude mouse assessed as lung damage at 10 to 20 mg/kg, ip administered for 7 days by H and E staining based analysis; type: organism-based; details: in vivo, 168 h, dose 10-20 mg/kg, time 7 day
[17] = target: T1, Protein cereblon/Hepatocyte growth factor receptor; assay: PROTAC activity at c-Met/CRBN in human EBC-1 cells assessed as effect on SALL4 level at 15.6 nM incubated for 24 hrs by proteomics analysis; type: cell-based
EBC-1 [18] = assay: PROTAC activity at c-Met Y1230C mutant /CRBN in human EBC-1 cells assessed as induction of c-Met degradation up to 1000 nM incubated for 24 hrs by Western blotting analysis; type: cell-based
[19] = target: T1, Protein cereblon/Hepatocyte growth factor receptor; assay: PROTAC activity at c-Met/CRBN in human EBC-1 cells assessed as reduction in AKR1C2 level at 15.6 nM incubated for 24 hrs by proteomics analysis; type: cell-based
[20] = Cmax in Sprague-Dawley rat at 5 mg/kg, ip measured upto 24 hrs by LC-MS/MS analysis; type: ADME, organism-based; details: in vivo
EBC-1 [21] = assay: Induction of apoptosis in human EBC-1 cells assessed as viable cells at 50 nM incubated for 24 hrs by Annexin V/FITC staining based flow cytometry analysis (reference value: 95.9%); type: functional; details: read-out: Activity
A549 = assay: Antiproliferative activity against human A549 cells assessed as cell viability incubated for 72 hrs by MTT assay; type: functional, cell-based; details: A549, 72 h
EBC-1 [22] = assay: Induction of apoptosis in human EBC-1 cells assessed as upregulation of cleaved caspase-3 level incubated for 24 hrs by Western blot analysis; type: functional, cell-based; details: dose 5-50 nM
[23] = Metabolic stability in human liver microsome assessed as clearance; type: ADME; details: liver microsomes, read-out: CLH
[24] = target: T1, Protein cereblon/Hepatocyte growth factor receptor; assay: PROTAC activity at c-Met/CRBN in human EBC-1 cells assessed as reduction in c-Met level at 15.6 nM incubated for 24 hrs by proteomics analysis; type: cell-based
EBC-1 [25] = assay: Induction of apoptosis in human EBC-1 cells assessed as viable cells at 5 nM incubated for 24 hrs by Annexin V/FITC staining based flow cytometry analysis (reference value: 95.9%); type: functional; details: read-out: Activity
[26] = AUC (0 to infinity) in Sprague-Dawley rat at 2 mg/kg, iv measured upto 24 hrs by LC-MS/MS analysis; type: ADME, organism-based; details: in vivo
EBC-1 [27] = assay: Induction of apoptosis in human EBC-1 cells assessed as necrotic cells at 15 nM incubated for 24 hrs by Annexin V/FITC staining based flow cytometry analysis (reference value: 0.35 %); type: functional
[28] = Stability in human whole blood assessed as half life; type: ADME, tissue-based
[29] = AUC (0 to infinity) in Sprague-Dawley rat at 5 mg/kg, ip measured upto 24 hrs by LC-MS/MS analysis; type: ADME, organism-based; details: in vivo
EBC-1 [30] = assay: Induction of apoptosis in human EBC-1 cells assessed as necrotic cells at 50 nM incubated for 24 hrs by Annexin V/FITC staining based flow cytometry analysis (reference value: 0.35 %); type: functional
[31] = target: T1, Protein cereblon/Hepatocyte growth factor receptor; assay: PROTAC activity at c-Met/CRBN in human EBC-1 cells assessed as induction of c-Met degradation incubated for 24 hrs by Western blotting analysis; type: cell-based
[32] = AUC (0 to t) in Sprague-Dawley rat at 5 mg/kg, ip measured upto 24 hrs by LC-MS/MS analysis; type: ADME, organism-based; details: in vivo
[33] = target: T1, Protein cereblon/Hepatocyte growth factor receptor; assay: PROTAC activity at c-Met/CRBN in human EBC-1 cells assessed as reduction in TFPI2 level at 15.6 nM incubated for 24 hrs by proteomics analysis; type: cell-based
[34] = target: T1, Protein cereblon/Hepatocyte growth factor receptor; assay: PROTAC activity at c-Met/CRBN in human EBC-1 cells assessed as reduction in IFRD1 level at 15.6 nM incubated for 24 hrs by proteomics analysis; type: cell-based
[35] = MRT (0 to infinity) in Sprague-Dawley rat at 5 mg/kg, ip measured upto 24 hrs by LC-MS/MS analysis; type: ADME, organism-based; details: in vivo
[36] = Toxicity in BALB/c nude mouse assessed as spleen damage at 10 to 20 mg/kg, ip administered for 7 days by H and E staining based analysis; type: organism-based; details: in vivo, 168 h, dose 10-20 mg/kg, time 7 day
[37] = Toxicity in BALB/c nude mouse assessed as body weight loss at 10 to 20 mg/kg, ip administered for 7 days; type: organism-based; details: in vivo, 168 h, dose 10-20 mg/kg, time 7 day

Work on COc1ccc(C(=O)N2CCC3(CCN(C(=O)CN4CCC(COc5cnc(-c6cccc(Cn7nc(-c8cccc(C#N)c8)ccc7=O)c6)nc5)CC4)CC3)CC2)cc1N1CCC(=O)NC1=O yielded an MRT last at 24 h [1] of 5.06 h, a half-life [2] of 5.49 h and an Emax [3] of 96.1%. For the same molecule, the MRT [4] was 3.58 h, the Activity [5] was “Active” and the Activity [6] was “inactive”. For the same molecule, the half-life [7] was greater than 2 h, the Activity (EBC-1 [8]) was “Dose-dependent-effect” and the AUCt [9] was 532 ng·h/mL. For the same molecule, the Activity [10] was “Active”, the Cmax [11] was 2380 ng/mL and the Activity [12] was “Active”. The Activity [13] was “Time-dependent-effect”, the Activity (EBC-1 [14]) was “Dose-dependent-effect” and the Activity (EBC-1 [15]) was 29.7%. The Activity [16] was “Non-toxic”, the Activity [17] was “No effect” and the Activity (EBC-1 [18]) was “Active”. For the same molecule, the Activity [19] was “Active”, the Cmax [20] was 104 ng/mL and the viability at 0.05 µM (EBC-1 [21]) was 62%. For the same molecule, the IC50 (A549) was 16 µM, the Activity (EBC-1 [22]) was “Dose-dependent-effect” and the CLint scaled [23] was 57.6 mL/min/kg. For the same molecule, the Activity [24] was “Active”, the viability at 0.005 µM (EBC-1 [25]) was 66.4% and the AUC(0-inf) [26] was 551 ng·h/mL. For the same molecule, the Activity (EBC-1 [27]) was 0.58%, the half-life [28] was greater than 2 h and the AUC(0-inf) [29] was 678 ng·h/mL. For the same molecule, the Activity (EBC-1 [30]) was 0.6%, the DC50 [31] was 0.00059 µM and the Activity ([31]; dose 0.03 nM) was “Dose-dependent-effect”. The AUCt [32] was 655 ng·h/mL, the Activity [33] was “Active” and the Activity [34] was “Active”. For the same molecule, the MRT inf [35] was 6 h, the Activity [36] was “Non-toxic” and the Activity [37] was “Non-toxic”.
